Data published in patent US8241846B1, “Hedgehog pathway modulation and uses thereof for treating, preventing and/or diagnosing cancer” (Institut de Recherches Cliniques de Montreal, priority 2008, dated 2012).

Tested on: GCP purified from post-natal day 4 rat cerebellum
Experiment: Ki-67 proliferation of electroporated GCP overexpressing BOC, with Shh and Smo inhibitor
Type: cell-based
Conditions: 10 nM Shh plus SANT-1
Procedure: GCP purified from post-natal day 4 rat cerebellum were co-electroporated with either a combination of BOC with a red fluorescence protein expressing plasmids (BOC) or with a control empty plasmid with a red fluorescence protein expressing plasmid (control). Proliferation was evaluated by measuring the percentage of Ki-67 positive cells among electroporated cells in absence or in presence of sonic hedgehog (Shh) and also in presence of Shh in combination with an inhibitor of Smo (SANT-1);
GCP purified from post-natal day 4 rat cerebellum were co-electroporated with either a combination of a plasmid containing a nucleic acid encoding murine BOC with a red fluorescent protein (RFP)-expressing plasmids (BOC) (both genes under the control of the chicken beta-actin promoter) or with a control empty plasmid with a red fluorescent protein-expressing plasmid (control). Proliferation was evaluated by measuring the percentage of Ki-67-positive cells among electroporated cells in the presence or absence of Shh. In addition, the role of the Hh signalling protein Smoothened (Smo) was tested using an inhibitor of Smo (SANT-1) in combination with Shh.

`Cc1nn(-c2ccccc2)c(C)c1/C=N/N1CCN(Cc2ccccc2)CC1` [SANT-1] was tested, and the “effect on BOC-mediated increase in percentage of Ki-67-positive cells” value was “prevents this increase”.
